Experiment: relative speed and contrast of silver halide coatings containing nucleator and incorporated booster, exposed and processed in developer
Settings: for Relative Speed: 1 minute at 35° C., developer pH 10.5; for lower scale activity (speed): in words
Procedure: Each coating used in the following examples was prepared on a polyester support, using a mono-dispersed 0.24 μm AgBrI (2.5 mol % iodide) iridium-doped emulsion at 3.51 g/m^2 Ag, 2.54 g gel/m^2, and 1.08 g latex/m^2 where the latex is a copolymer of methyl acrylate, 2-acrylamido-2-methylpropane sulfonic acid, and 2-acetoacetoxyethylmethylacrylate. The silver halide emulsion was spectrally sensitized with 214 mg/Ag mol of anhydro-5,5'-dichloro-9-ethyl-3,3'-di-(3-sulfopropyl)oxacarbocyanine hydroxide, triethylene salt and the emulsion layer was overcoated with gelatin containing polymethylmethacrylate beads. The nucleating agent was added as a methanol solution to the emulsion melts at a level in millimoles (mM) per mole of silver as hereinafter indicated. An "incorporated booster" was added as a methanol solution in an amount of 64.6 milligrams per square meter of photographic element. The compound employed as the "incorporated booster" is represented by the formula: [drawing 8] where Pr represents n-propyl. Coatings were exposed for five seconds to a 3000° K. tungsten light source and processed for 1 minute at 35° C. in the developer solution.
To prepare the developer solution, a concentrate was prepared from the following ingredients:
The concentrate was diluted at a ratio of one part of concentrate to two parts of water to produce a working strength developing solution with a pH of 10.5.

[1] = concentration of nucleator 1.0 mM/Ag mole
[2] = concentration of nucleator 2.0 mM/Ag mole

| Compound | speed compared with Test 2 (Test 7 (1.0 mM/Ag mole) versus Test 2 (2.0 mM/Ag mole)) | Relative Speed [1] | Relative Speed [2] | lower scale activity (speed) | Relative Speed (concentration of nucleator 1.9 mM/Ag mole) |
| --- | --- | --- | --- | --- | --- |
| CCCCCCCOCCOCCOCCOCCOCCOCCOCCOCCOCCOc1ccc(S(=O)(=O)Nc2ccc(NNC=O)cc2)cc1 [hydrazide I-4] | somewhat greater speed | 105 | 110 | beneficial effects upon lower scale activity (speed) |  |
| CCCCCOCCOCCOCCOCCOc1ccc(S(=O)(=O)Nc2ccc(NNC=O)cc2)cc1OCCOCCOCCOCCOCCCCC [hydrazide I-8] |  | 98 |  | beneficial effects upon lower scale activity (speed) | 105 |
| CCCCCCCCOCCOCCOc1ccc(S(=O)(=O)Nc2ccc(NNC=O)cc2)cc1 [reference compound] |  | 87 | 93 |  |  |
| CC(C)c1ccc(C(C)C)c(S(=O)(=O)Nc2ccc(NNC=O)cc2)c1 [reference compound] |  | 87 | 100 |  |  |
